# Results reported in patent publication US20130045969A1, “PLANT DISEASE CONTROLLING COMPOSITION AND METHOD FOR CONTROLLING PLANT DISEASE” (SUMITOMO CHEMICAL COMPANY, LIMITED, priority 2010, published 2013).
# Test system: gray mold fungus (Botrytis cinerea)
# Assay: Cucumber leaf disk preventive test against gray mold
# Format: in vivo
# Details: single compound, 15° C., four days
# Description: True leaf of cucumber is punched out with cork borer to 13 mm in diameter to prepare a leaf disk. In 24 well microwell plate that is dispensed with 1 ml 0.8% water agar, the leaf disk is placed such that the upper side of the leaf is in an upward direction. Thereto is added 20 micro liter a testing solution prepared by mixing a dimethyl sulfoxide solution of the present compound (racemate) and a dimethyl sulfoxide solution of trifloxystrobin or pyribencarb to a predetermined concentration to treat the leaf disk. After confirming that the testing medical solution is dried, conidium of gray mold fungus (Botrytis cinerea) is suspended into potato dextrose broth (DIFCO) in a density of about 10^5 conidium/mL and is then subjected to a spray inoculation. After leaving to stand the leaf disk in a growth chamber set up at 15° C. for four days, an onset area on the leaf is measured and then calculated an onset area rate (hereinafter, referred to as an onset area rate of treated group). The same operation is carried out with 20 micro liter water instead of 20 micro liter a testing medicine solution to calculate an onset area rate (hereinafter, referred to an onset area rate of non-treated group). A preventive value is calculated from the above onset area rate of treated group and the onset area rate of non-treated group by the following equation: Preventive value (%)=100×(A−B)/A […] The same operations as described in Test Example 1 are carried out with azoxystrobin, dimoxystrobin, fluoxastrobin, kresoxim-methyl, metominostrobin, orysastrobin, picoxystrobin or pyraclostrobin instead of trifloxystrobin or pyribencarb, so as to calculate respective preventive values. Also for comparison, the same operations as described in Test Example 1 are carried out with the exception that the testing medicine solution is substituted with a predetermined concentration of each dimethyl sulfoxide solution of the present compound (racemate), azoxystrobin, dimoxystrobin, fluoxastrobin, kresoxim-methyl, metominostrobin, orysastrobin, picoxystrobin or pyraclostrobin, so as to calculate respective preventive values. For comparison, the same operations as described in Test Example 1 are carried out with the exception that the testing medicine solution is substituted with a predetermined concentration of each dimethyl sulfoxide solution of trifloxystrobin or pyribencarb, so as to calculate respective preventive values.
# [1] = treatment concentration 0.5 ppm
# [2] = treatment concentration 5.0 ppm
SMILES,preventive value (%) [1] [%],preventive value (%) [2] [%]
CNC(=O)/C(=N/OC)c1ccccc1Oc1ccccc1 [metominostrobin],10,20
CNC(=O)/C(=N/OC)c1ccccc1COc1cc(C)ccc1C [dimoxystrobin],48,57
CO/N=C(/C1=NOCCO1)c1ccccc1Oc1ncnc(Oc2ccccc2Cl)c1F [fluoxastrobin],43,52
CNC(=O)/C(=N/OC)c1ccccc1CO/N=C(C)/C(=N/OC)C(/C)=N/OC [orysastrobin],10,25
COC(=O)N(OC)c1ccccc1COc1ccn(-c2ccc(Cl)cc2)n1 [pyraclostrobin],15,35
CO/C=C(/C(=O)OC)c1ccccc1COc1cccc(C(F)(F)F)n1 [picoxystrobin],10,30
CO/C=C(/C(=O)OC)c1ccccc1Oc1cc(Oc2ccccc2C#N)ncn1 [azoxystrobin],43,53
COC(=O)NCc1cc(/C(C)=N/OCc2cccc(C)n2)ccc1Cl [pyribencarb],42,58
CO/N=C(/C(=O)OC)c1ccccc1COc1ccccc1C [kresoxim-methyl],47,52
CON=C(C(=O)OC)c1ccccc1CON=C(C)c1cccc(C(F)(F)F)c1 [trifloxystrobin],10,20
